Experiment: Plasma coenzyme Q10 levels after oral administration to rats (HPLC assay)
Format: in vivo, male SD strain rats
Settings: plasma coenzyme Q10 (reduced + oxidized), oral 100 mg/kg in soybean oil
Method: A solution of reduced coenzyme Q10 (containing 1% by weight of oxidized coenzyme Q10) in soybean oil (reduced coenzyme Q10/soybean oil solution=20 mg/ml) was orally administered to male SD strain rats (6 weeks of age) at a dose of reduced coenzyme Q10 (containing 1% by weight of oxidized coenzyme Q10) of 100 mg/kg and, after 0.5, 1, 2, 3, 4, 5, 6, 8, 12 and 24 hours after administration, blood samples were collected and used for assaying plasma coenzyme Q10 (reduced coenzyme Q10 and oxidized coenzyme Q10) (n=4). Plasma coenzyme Q10 was assayed by HPLC. Thus, coenzyme Q7 (0.003 mg), ethanol (1 ml), distilled water (1 ml) and ferric chloride (0.01%) were added to each rat plasma sample (0.2 ml) and, after mixing up, hexane (3 ml) was added thereto and coenzyme Q10 was extracted with shaking. […]
Reduced coenzyme Q10 (containing 3% by weight of oxidized coenzyme Q10) was administered in the same manner as in Example 1, and plasma coenzyme Q10 levels were determined.
Oxidized coenzyme Q10 was administered in the same manner as in Example 1, and plasma coenzyme Q10 levels were determined.
Reduced coenzyme Q10 (containing 5% by weight of oxidized coenzyme Q10) was administered in the same manner as in Example 1, and plasma coenzyme Q10 levels were determined.

Cmax (n=4): 1730 ng/mL | AUC (n=4, sampling up to 24 hours): 12900 ng·h/mL
SMILES: COC1=C(OC)C(=O)C(C/C=C(\C)CC/C=C(\C)CC/C=C(\C)CC/C=C(\C)CC/C=C(\C)CC/C=C(\C)CC/C=C(\C)CC/C=C(\C)CC/C=C(\C)CCC=C(C)C)=C(C)C1=O [Comparative Example 1, Oxidized coenzyme Q10]

Reference: patent US7708990B2, “Coenzyme Q compositions persisting in blood” (Kaneka Corporation, priority 2004, dated 2010)
